Measurements: article PMC11435058, “Synthesis of New Thiazole-Privileged Chalcones as Tubulin Polymerization Inhibitors with Potential Anticancer Activities” (Pharmaceuticals, 2024)
Like-named read-outs stand apart in the source and are kept apart here.

Key:
[1] = system: MDA-MB-435; test: NCI-60 anticancer screen (SRB; single dose and five doses); conditions: Homo sapiens
[2] = system: OVCAR-3; test: cells; conditions: Homo sapiens
[3] = system: NCI-H522; test: NCI-60 anticancer screen (SRB; single dose and five doses); conditions: Homo sapiens
[4] = system: 60 human tumor cell lines panel; test: NCI-60 anticancer screen, whole panel (means and ranges over the cell lines); assay type: cell-based; conditions: for activity at 10 µM: Homo sapiens, 48 h, dose of 10 μM
[5] = system: SK-MEL-5; test: NCI-60 anticancer screen (SRB; single dose and five doses); conditions: Homo sapiens
[6] = system: UO-31; test: as above; conditions: Homo sapiens
[7] = system: A549/ATCC; test: as above; conditions: Homo sapiens
[8] = system: HCT-116; test: as above; conditions: Homo sapiens
[9] = system: U251; test: as above; conditions: Homo sapiens
[10] = system: 786-0; test: as above; conditions: Homo sapiens
[11] = system: KM12; test: as above; conditions: Homo sapiens
[12] = system: UACC-257; test: as above; conditions: Homo sapiens
[13] = system: TK-10; test: as above; conditions: Homo sapiens
[14] = system: MCF7; test: as above; conditions: Homo sapiens
[15] = system: SNB-19; test: cells; conditions: Homo sapiens
[16] = five doses, mean graph midpoint over all cell lines

Work on Cc1[nH]c(=S)sc1C(=O)/C=C/c1ccc(Br)cc1 [2g, (E)-3-(4-Bromophenyl)-1-(4-Methyl-2-Thioxo-2,3-Dihydrothiazol-5-yl)Prop-2-En-1-One] yielded a CC50 ([1]; MDA-MB-435, read-out: LC50) of 45.1 µM, an IC (TGI) ([1]; MDA-MB-435, read-out: TGI) of 16.7 µM and a GI50 ([2]; OVCAR-3) of 1.88 µM. For the same molecule, the activity at 10 µM ([2]; OVCAR-3, 48 h, read-out: Growth Percentage) was -12.3%, the CC50 ([2]; OVCAR-3, read-out: LC50) was 9.7 µM and the IC (TGI) ([2]; OVCAR-3, read-out: TGI) was 4.27 µM. It also gave a GI50 ([3]; NCI-H522) of 3.37 µM, an activity at 10 µM ([3]; NCI-H522, 48 h, read-out: Growth Percentage) of 21.1% and a CC50 ([3]; NCI-H522, read-out: LC50) of 41.2 µM. It also gave an IC (TGI) ([3]; NCI-H522, read-out: TGI) of 14.3 µM, an activity at 10 µM ([4]; mean over the tested cell lines, read-out: Mean growth percentage) of 34.2% and an activity at 10 µM ([4]; range over the cell lines, read-out: growth percentages against most of the tested cells (lowest to highest)) of -34.1 to 109%. For the same molecule, the “Log10GI50 _MID” value [4, 16] was -5.31 Molar, the “Log10LC50 _MID” value [4, 16] was -4.3 Molar and the “Log10TGI _MID” value [4, 16] was -4.75 Molar. For the same molecule, the GI50 ([5]; SK-MEL-5) was 5.82 µM, the activity at 10 µM ([5]; SK-MEL-5, 48 h, read-out: Growth Percentage) was 48.8% and the CC50 ([5]; SK-MEL-5, read-out: LC50) was 43 µM. For the same molecule, the IC (TGI) ([5]; SK-MEL-5, read-out: TGI) was 18.4 µM, the GI50 ([6]; UO-31) was 2.46 µM and the activity at 10 µM ([6]; UO-31, 48 h, read-out: Growth Percentage) was 22.4%. The IC (TGI) ([6]; UO-31, read-out: TGI) was 13.5 µM, the GI50 ([7]; A549) was 11.7 µM and the activity at 10 µM ([7]; A549, 48 h, read-out: Growth Percentage) was 64.1%. The CC50 ([7]; A549, read-out: LC50) was 55.3 µM, the IC (TGI) ([7]; A549, read-out: TGI) was 25.4 µM and the GI50 ([8]; HCT-116) was 3.82 µM. For the same molecule, the activity at 10 µM ([8]; HCT-116, 48 h, read-out: Growth Percentage) was 16.6%, the CC50 ([8]; HCT-116, read-out: LC50) was 40.9 µM and the IC (TGI) ([8]; HCT-116, read-out: TGI) was 13.1 µM. The GI50 ([9]; U-251) was 2.87 µM, the activity at 10 µM ([9]; U-251, 48 h, read-out: Growth Percentage) was 15.5% and the CC50 ([9]; U-251, read-out: LC50) was 39.7 µM. The IC (TGI) ([9]; U-251, read-out: TGI) was 11.7 µM, the GI50 ([10]; 786-0) was 3.33 µM and the activity at 10 µM ([10]; 786-0, 48 h, read-out: Growth Percentage) was 25%. For the same molecule, the CC50 ([10]; 786-0, read-out: LC50) was 41.8 µM, the IC (TGI) ([10]; 786-0, read-out: TGI) was 13.3 µM and the GI50 ([11]; KM12) was 3.27 µM. The activity at 10 µM ([11]; KM12, 48 h, read-out: Growth Percentage) was 1.17%, the CC50 ([11]; KM12, read-out: LC50) was 35.9 µM and the IC (TGI) ([11]; KM12, read-out: TGI) was 11 µM. It also gave a GI50 ([12]; UACC-257) of 11.3 µM, an activity at 10 µM ([12]; UACC-257, 48 h, read-out: Growth Percentage) of 69.1% and a CC50 ([12]; UACC-257, read-out: LC50) of 51.9 µM. The IC (TGI) ([12]; UACC-257, read-out: TGI) was 24.2 µM, the GI50 ([13]; TK-10) was 3.04 µM and the activity at 10 µM ([13]; TK-10, 48 h, read-out: Growth Percentage) was 37.8%. For the same molecule, the CC50 ([13]; TK-10, read-out: LC50) was 35.2 µM, the IC (TGI) ([13]; TK-10, read-out: TGI) was 11.8 µM and the GI50 ([14]; MCF7) was 2.57 µM. It also gave an activity at 10 µM ([14]; MCF7, 48 h, read-out: Growth Percentage) of 10.5%, a CC50 ([14]; MCF7, read-out: LC50) of 38.7 µM and an IC (TGI) ([14]; MCF7, read-out: TGI) of 10.6 µM. It also gave a GI50 ([15]; SNB-19) of 3.47 µM, an activity at 10 µM ([15]; SNB-19, 48 h, read-out: Growth Percentage) of 32.7% and a CC50 ([15]; SNB-19, read-out: LC50) of 37.7 µM. For the same molecule, the IC (TGI) ([15]; SNB-19, read-out: TGI) was 13.4 µM.
